Reference: the supplement of paper PMC8253809

Legend:
[1] = test system: HGGX42 (H3.3 G34R paediatric high-grade glioma line); experiment: EC50 (inflection of fitted growth-inhibition curve) (log10 M)
Method in brief: (§1)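 A pin tool was used to add a 10-point threefold dilution series (mean top concentration 35 μM), in triplicate, to patient-derived pHGG/DIPG cell lines and astrocyte controls seeded on 384-well plates coated with 1% Geltrex. After 7 days at 37 °C and 5% CO2 (3 days for iAstro), CellTiter-Glo luminescence was log2-transformed, normalised on each plate to % activity relative to negative (solvent) and positive control wells, and pooled. EC50 and maximal response (yFin) were read from the three- or four-parameter log-logistic fit with the lowest AICc.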

[2] = test system: HGGX2 (paediatric high-grade glioma line); experiment: as above
Method in brief: as §1

[3] = test system: SUDIPGXIX (diffuse intrinsic pontine glioma line); experiment: as above
Method in brief: as §1

[4] = test system: DIPGX29 (H3.3 K27M diffuse intrinsic pontine glioma line); experiment: as above
Method in brief: as §1

[5] = test system: DIPGX9 (diffuse intrinsic pontine glioma line); experiment: as above
Method in brief: as §1

[6] = test system: SUDIPGXXI (diffuse intrinsic pontine glioma line); experiment: as above
Method in brief: as §1

[7] = test system: HABS (astrocyte control); experiment: as above
Method in brief: as §1

[8] = test system: SUDIPGXVII (diffuse intrinsic pontine glioma line); experiment: as above
Method in brief: as §1

[9] = test system: DIPGX37 (H3.3 K27M diffuse intrinsic pontine glioma line); experiment: as above
Method in brief: as §1

[10] = test system: DIPGX7 (H3.3 K27M diffuse intrinsic pontine glioma line); experiment: as above
Method in brief: as §1

[11] = test system: SUDIPGXIII (diffuse intrinsic pontine glioma line); experiment: as above
Method in brief: as §1

[12] = test system: SUDIPGVI (diffuse intrinsic pontine glioma line); experiment: as above
Method in brief: as §1

[13] = test system: SUDIPGIV (diffuse intrinsic pontine glioma line); experiment: as above
Method in brief: as §1

[14] = test system: HGGX39 (paediatric high-grade glioma line); experiment: as above
Method in brief: as §1

[15] = test system: iAstro (astrocyte control); experiment: as above
Method in brief: as §1

[16] = test system: HGGX6 (H3.3 G34R paediatric high-grade glioma line); experiment: area under dose-response curve of % growth inhibition (log2 RLU vs DMSO / staurosporine), 1e-11 to 1e-4 M (% x log10 M); higher = more growth inhibition
Method in brief: (§2)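 A 10-point threefold dilution series, mean top concentration 35 μM, was applied in triplicate to patient-derived pHGG/DIPG lines and astrocytes on 1% Geltrex-coated 384-well plates for 7 days (3 days for iAstro) at 37 °C, 5% CO2. Per-plate % activity between solvent and positive controls was calculated from log2-transformed CellTiter-Glo luminescence. Area under the curve followed from the trapezoid rule on a log-logistic fit, or on a smoothing spline when the sigmoid fit failed.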

[17] = test system: HGGX42; experiment: as above
Method in brief: as §2

[18] = test system: HGGX2; experiment: as above
Method in brief: as §2

[19] = test system: SUDIPGXIX; experiment: as above
Method in brief: as §2

[20] = test system: DIPGX29; experiment: as above
Method in brief: as §2

[21] = test system: DIPGX9; experiment: as above
Method in brief: as §2

[22] = test system: SUDIPGXXI; experiment: as above
Method in brief: as §2

[23] = test system: HABS; experiment: as above
Method in brief: as §2

[24] = test system: SUDIPGXVII; experiment: as above
Method in brief: as §2

[25] = test system: DIPGX37; experiment: as above
Method in brief: as §2

[26] = test system: DIPGX7; experiment: as above
Method in brief: as §2

[27] = test system: SUDIPGXIII; experiment: as above
Method in brief: as §2

[28] = test system: SUDIPGVI; experiment: as above
Method in brief: as §2

[29] = test system: SUDIPGIV; experiment: as above
Method in brief: as §2

[30] = test system: HGGX39; experiment: as above
Method in brief: as §2

[31] = test system: iAstro; experiment: as above
Method in brief: as §2

| SMILES | EC50 (log10 M) [1] | EC50 (log10 M) [2] | EC50 (log10 M) [3] | EC50 (log10 M) [4] | EC50 (log10 M) [5] | EC50 (log10 M) [6] | EC50 (log10 M) [7] | EC50 (log10 M) [8] | EC50 (log10 M) [9] | EC50 (log10 M) [10] | EC50 (log10 M) [11] | EC50 (log10 M) [12] | EC50 (log10 M) [13] | EC50 (log10 M) [14] | EC50 (log10 M) [15] | area under dose-response curve [16] | area under dose-response curve [17] | area under dose-response curve [18] | area under dose-response curve [19] | area under dose-response curve [20] | area under dose-response curve [21] | area under dose-response curve [22] | area under dose-response curve [23] | area under dose-response curve [24] | area under dose-response curve [25] | area under dose-response curve [26] | area under dose-response curve [27] | area under dose-response curve [28] | area under dose-response curve [29] | area under dose-response curve [30] | area under dose-response curve [31] |
| --- | --- | --- | --- | --- | --- | --- | --- | --- | --- | --- | --- | --- | --- | --- | --- | --- | --- | --- | --- | --- | --- | --- | --- | --- | --- | --- | --- | --- | --- | --- | --- |
| C[C@@]12OC(=O)[C@]1([C@@H](O)[C@@H]1C=CCCC1)NC(=O)[C@@H]2CCCl [MARIZOMIB] | -6.62 | -7.46 | -6.19 | -7.05 | -6.99 | -7.88 | -6.2 | -6.26 | -6.54 | -6.48 | -6.99 | -7.2 | -7.41 | -6.39 | -8.18 | 135 | 163 | 337 | 229 | 100 | 302 | 422 | 149 | 108 | 254 | 251 | 75.8 | 331 | 407 | 241 | 375 |
| Nc1ccccc1NC(=O)c1ccc(CNc2nccc(-c3cccnc3)n2)cc1 [MOCETINOSTAT] | -5.52 | -5.76 | -5.46 | -5.81 | -6.26 | -6.53 | -5.43 | -5.48 | -5.51 | -5.42 | -5.46 | -5.98 | -5.43 | -5.37 | -5.85 | 129 | 115 | 165 | 147 | 144 | 232 | 319 | 135 | 155 | 146 | 147 | 117 | 184 | 175 | 133 | 70.7 |
| O=C(Nc1ccc([N+](=O)[O-])cc1Cl)c1cc(Cl)ccc1O [NICOLSAMIDE] | -5.17 | -5.27 | -5.31 | -5.58 | -5.44 | -6.1 | -5.14 | -5.39 | -5.74 | -5.77 | -5.59 | -5.47 | -5.58 | -5.17 | -5.43 | 85.2 | 129 | 119 | 142 | 123 | 150 | 232 | 116 | 141 | 142 | 153 | 167 | 109 | 146 | 115 | 49.6 |
| CCNC(=O)c1noc(-c2cc(C(C)C)c(O)cc2O)c1-c1ccc(CN2CCOCC2)cc1 [NVP-AUY922] | -7.81 | -7.61 | -7.59 | -6.44 | -7.48 | -6.65 | -7.28 | -7.41 | -7.47 | -5.82 | -7.11 | -7.36 | -7.28 | -7.42 | -6.08 | 99.4 | 147 | 180 | 274 | 204 | 294 | 318 | 285 | 218 | 285 | 94.5 | 213 | 118 | 183 | 275 | 118 |
| CCCS(=O)(=O)c1nc(NC2CC2)cc(-c2ccc3c(ccn3C3CC(C)(C)NC(C)(C)C3)c2)n1 [NVS-1] | -5.95 | -5.95 | -5.92 | -6.09 | -5.62 | -5.34 | -5.42 | -5.75 | -5.99 | -5.64 | -5.49 | -5.79 | -5.52 | -5.57 | -5.72 | 145 | 185 | 169 | 174 | 172 | 152 | 140 | 124 | 154 | 159 | 166 | 163 | 158 | 138 | 130 | 143 |
| COC1=CC(c2cc3ccccc3[nH]2)=N/C1=C\c1[nH]c(C)cc1C [OBATOCLAX] | -5.63 | -5.97 | -5.51 | -5.01 | -5.05 | -5.64 | -5.01 | -5 | -5.01 | -5.53 | -4.99 | -5.71 | -5 | -5.02 | -5.45 | 136 | 196 | 217 | 216 | 174 | 177 | 280 | 138 | 128 | 167 | 219 | 128 | 210 | 177 | 165 | 141 |
| C[C@@H]1O[C@@H](O[C@H]2C[C@@H](O)[C@]3(CO)[C@H]4[C@H](O)C[C@]5(C)[C@@H](C6=CC(=O)OC6)CC[C@]5(O)[C@@H]4CC[C@]3(O)C2)[C@H](O)[C@H](O)[C@H]1O [OUABAIN] | -6.47 | -6.55 | -6.41 | -7.26 | -6.37 | -6.79 | -5.89 | -6.53 | -6.7 | -6.78 | -6.47 | -6.13 | -6.75 | -6.9 | -6.91 | 173 | 127 | 173 | 202 | 175 | 168 | 251 | 133 | 186 | 126 | 279 | 107 | 123 | 284 | 218 | 135 |
| Cc1[nH]c2ccccc2c1CCNCc1ccc(/C=C/C(=O)NO)cc1 [PANOBINOSTAT] | -6.95 | -6.89 | -6.75 | -6.97 | -7.16 | -7.22 | -6.59 | -6.69 | -6.87 | -6.73 | -6.04 | -6.87 | -6.92 | -6.81 | -6.78 | 216 | 282 | 253 | 293 | 228 | 287 | 355 | 272 | 244 | 220 | 243 | 195 | 249 | 252 | 212 | 134 |
| OC1(c2ccc(Cl)c(C(F)(F)F)c2)CCN(CCCC(c2ccc(F)cc2)c2ccc(F)cc2)CC1 [PENFLURIDOL] | -5.63 | -5.63 | -5.53 | -5.43 | -5.4 | -5.9 | -4.88 | -5.21 | -5.35 | -5.6 | -5.21 | -5.28 | -5.56 | -5.24 | -5.63 | 104 | 160 | 175 | 149 | 135 | 147 | 201 | 78.4 | 126 | 126 | 163 | 110 | 126 | 152 | 113 | 136 |
| Cc1ccc(C(=O)Nc2ccc(CN3CCN(C)CC3)c(C(F)(F)F)c2)cc1C#Cc1cnc2cccnn12 [PONATINIB] | -5.22 | -5.61 | -5.29 | -5.28 | -6.72 | -7.54 | -5.89 | -4.84 | -5.38 | -5.61 | -4.88 | -4.86 | -4.81 | -5.47 | -5.12 | 155 | 164 | 163 | 132 | 134 | 252 | 345 | 194 | 125 | 141 | 155 | 132 | 119 | 102 | 148 | 128 |
| O=C(Nc1ccccc1-c1cn2c(CN3CCNCC3)csc2n1)c1cnc2ccccc2n1 [SRT1720] | -5.49 | -5.41 | -5.34 | -5.16 | -5.43 | -5.7 | -4.93 | -4.97 | -5.19 | -5.4 | -4.96 | -5.36 | -5.41 | -5.08 | -5.43 | 102 | 152 | 158 | 139 | 110 | 146 | 178 | 91.1 | 96.6 | 113 | 143 | 122 | 154 | 146 | 103 | 131 |
